Article PMC8086754 (Journal of medicinal chemistry, 2020)

Tests used:
[1] = biological target: T1, human i-20S β5i (Homo sapiens, UniProt P28062); experiment: IC50 determination against human i-20S β5i; assay type: biochemical; conditions: for inhibitory activity against β5i (SAR statement in words): relative to the parent compound of the sentence; for reduction in β5i activity: relative to PKS2086
[2] = biological target: human c-20S β5c (Homo sapiens, UniProt P28074); experiment: IC50 determination against human c-20S β5c; assay type: biochemical; conditions: relative to the parent compound of the sentence
[3] = test system: T cell proliferation in PBMCs; experiment: Human PBMC proliferation assay; assay type: cell-based
[4] = biological target: α-chymotrypsin (Bos taurus, UniProt P00766); experiment: Protease counter-screen, α-chymotrypsin; assay type: biochemical; conditions: compounds at 100, 33.3 and 11.1 μM
[5] = biological target: cathepsin L (Homo sapiens, UniProt P07711); experiment: Protease counter-screen, cathepsin L; assay type: biochemical; conditions: compounds at 100, 33.3 and 11.1 μM
[6] = biological target: T1, human i-20S β5i; conditions: previously reported; cited from earlier work

cathepsin L, sequence (P07711 114-333, species assumed): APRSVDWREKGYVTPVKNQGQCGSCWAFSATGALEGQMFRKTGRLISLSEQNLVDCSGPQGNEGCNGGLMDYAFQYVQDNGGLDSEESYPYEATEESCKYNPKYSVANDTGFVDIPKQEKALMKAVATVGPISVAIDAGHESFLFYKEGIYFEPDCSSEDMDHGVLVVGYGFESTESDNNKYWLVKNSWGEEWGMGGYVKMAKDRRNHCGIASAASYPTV

Row | Structure (SMILES) | inhibitory activity against β5i (SAR statement in words) [1] | inhibitory activity against β5c (SAR statement in words) [2] | further results
1 | C[C@H](NC(=O)[C@H](CC(=O)NOC(C)(C)C)NC(=O)CCc1ccccc1)C(=O)NCc1ccnc2ccccc12 [PKS2068] | eliminated inhibitory activity | eliminated inhibitory activity | 
2 | COC[C@H](NC(=O)[C@H](CC(=O)NOC(C)(C)C)NC(=O)CCc1ccccc1)C(=O)NCc1cccc2c1NCCC2 [PKS2226] |  |  | reduction in β5i activity [1]: 114 fold
3 | NC(=O)C[C@H](NC(=O)CCc1ccccc1)C(=O)N[C@@H](Cc1ccc(F)cc1)C(=O)NCc1cccc2ccccc12 [PKS21083] |  | abolished the inhibitory activities | 
4 | COC[C@H](NC(=O)[C@H](CCC(=O)NC(C)(C)C)NS(=O)(=O)c1ccc(C)cc1)C(=O)NCc1ccc(F)c2ccccc12 [PKS21265] |  |  | greater potency against T cells ([3]; compared to PKS21209): 2 fold; greater potency against T cells ([3]; compared to PKS21266): 5 fold
5 | COC[C@H](NC(=O)[C@H](CC(=O)N1CCC1)NC(=O)CCc1ccccc1)C(=O)NCc1cccc2ccccc12 [PKS2209] |  | significant loss of affinity | 
6 | C[C@H](NC(=O)[C@H](CCC(=O)NC(C)(C)C)NC(=O)CCc1ccccc1)C(=O)NCc1ccc(F)c2ccccc12 [PKS21210] | equipotent |  | 
7 | C[C@H](NC(=O)[C@H](CC(=O)NC(C)(C)C)NC(=O)C(=O)c1c[nH]c2ccccc12)C(=O)NCc1cccc2ccccc12 [PKS3053] |  |  | inhibition of α-chymotrypsin [4]: weak inhibition; inhibition of cathepsin L [5]: weak inhibition; activity against T cells relative to comparator ([3]; compared to PKS21210): two times more active; activity against T cells relative to comparator ([3]; compared to PKS21272): > 3 times
8 | COC[C@H](NC(=O)[C@H](CC(=O)NOC(C)(C)C)NC(=O)CCc1ccccc1)C(=O)NCc1cccc(OC)c1 [PKS2160] |  |  | selectivity for β5i over β5c (statement in words) [1]: abolished selectivity
9 | COC[C@H](NC(=O)CCc1ccccc1)C(=O)N[C@@H](C)C(=O)NCc1cccc2ccccc12 [PKS2048] | abolished the inhibitory activities | abolished the inhibitory activities | 
10 | COC[C@H](NC(=O)[C@H](CC(=O)NOC(C)(C)C)NC(=O)CCc1ccccc1)C(=O)NCc1cccc(OC)c1OC [PKS2211] |  |  | selectivity for β5i over β5c (statement in words) [1]: abolished selectivity
11 | CC(C)(C)ONC(=O)C[C@H](NC(=O)CCc1ccccc1)C(=O)N[C@@H](Cc1ccc(F)cc1)C(=O)NCc1cccc2ccccc12 [DPLG3] |  |  | β5i inhibitory potency [6]: single-digit nanomolar potency
12 | C[C@H](NC(=O)[C@H](CC(=O)NOC(C)(C)C)NC(=O)CCc1ccccc1)C(=O)NCc1cccc2[nH]ccc12 [PKS2083] | decreased potency against β5i | increased activity against β5c | 
13 | COC[C@H](NC(=O)[C@H](CC(=O)NOC(C)(C)C)NC(=O)CCc1ccccc1)C(=O)NCc1cccc2cccnc12 [PKS2220] |  |  | reduction in β5i activity [1]: 19 fold
14 | C[C@H](NC(=O)[C@H](CC(=O)NOC(C)(C)C)NC(=O)CCc1ccccc1)C(=O)NCc1cccc2ncccc12 [PKS2073] | eliminated inhibitory activity | eliminated inhibitory activity | 
15 | COC[C@H](NC(=O)[C@H](CC(=O)N(C)C)NC(=O)CCc1ccccc1)C(=O)NCc1cccc2ccccc12 [Compound 2230BP] |  | significant loss of affinity | 
